Literature values, collected in publication PMC10879402, “Comparative Study of Dermal Pharmacokinetics Between Topical Drugs Using Open Flow Microperfusion in a Pig Model” (Pharmaceutical Research, 2023).

Assays:
[1] = parameters: method as in ref 52 (PF-06263276), ref 51 (PF-06763809); conditions: formulation used in this study (PF-06263276 4% solution, PF-06763809 2.3%); ref 52 (PF-06263276), ref 51 (PF-06763809)
[2] = parameters: method as in ref 64 (a number printed in a supplementary file, which may have a reference list of its own: not looked up in the article's list); conditions: topical brepocitinib 0.1%, 0.3%, 1% and 3%
[3] = parameters: method as in PMID 32949620; conditions: topical application of a […] cream formulation

CCc1cc(O)c(F)cc1-c1ccc2c(-c3nc4c([nH]3)CCN(C(=O)c3cnc(N5CCCCC5)cn3)C4)n[nH]c2c1 [PF-06263276]
efficacy in human psoriasis plaque test [1]: no efficacy

Cn1cc(Nc2nccc(N3C[C@H]4CC[C@@H](C3)N4C(=O)[C@@H]3CC3(F)F)n2)cn1 [brepocitinib]
outcome in psoriasis clinical study [2]: did not meet the primary and secondary endpoints

N#CC[C@H](C1CCCC1)n1cc(-c2ncnc3[nH]ccc23)cn1 [ruxolitinib]
dermal ruxolitinib concentration (total) [3]: 63 µM
dermal ruxolitinib concentration (unbound) [3]: 12 µM
